{
  "source": "PubChem BioAssay AID1963967",
  "about": "(Molecular Pharmacology Branch, DTP, NCI, 2024);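 also: agents incubated with spheroids for one week before read-out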;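 as to viability, T/C: 100% = DMSO vehicle-treated control wells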",
  "system": "855422-203-R-J1-PDC spheroids with HUVEC/MSC, viability",
  "assay": "Anticancer human tumor 855422-203-R-J1-PDC patient-derived bladder carcinoma cell line growth inhibition [PI3K]",
  "settings": "for IC50: curve of first compound; for viability, T/C: stronger effect = lower value",
  "method_in_brief": "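Complex 3D spheroids (cancer cells + endothelial HUVEC + mesenchymal stem cells); drug pairs of targeted agent x inavolisib/alpelisib/duvelisib/copanlisib; half-log series from ~Cmax, max 10 microM if Cmax unknown; endpoint viability.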",
  "key": {"[1]": {"settings": "second compound 0.00316 µM, first compound 0.0316 µM"}, "[2]": {"settings": "second compound 0.00316 µM, first compound 0.1 µM"}, "[3]": {"settings": "second compound 0.00316 µM, first compound 0.316 µM"}, "[4]": {"settings": "second compound 0.00316 µM, first compound 1 µM"}, "[5]": {"settings": "second compound 0.00316 µM, first compound 3.16 µM"}, "[6]": {"settings": "second compound 0.00316 µM, first compound 10 µM"}, "[7]": {"settings": "second compound 0.01 µM, first compound 0.0316 µM"}, "[8]": {"settings": "second compound 0.01 µM, first compound 0.1 µM"}, "[9]": {"settings": "second compound 0.01 µM, first compound 0.316 µM"}, "[10]": {"settings": "second compound 0.01 µM, first compound 1 µM"}, "[11]": {"settings": "second compound 0.01 µM, first compound 3.16 µM"}, "[12]": {"settings": "second compound 0.01 µM, first compound 10 µM"}, "[13]": {"settings": "second compound 0.0316 µM, first compound 0.0316 µM"}, "[14]": {"settings": "second compound 0.0316 µM, first compound 0.1 µM"}, "[15]": {"settings": "second compound 0.0316 µM, first compound 0.316 µM"}, "[16]": {"settings": "second compound 0.0316 µM, first compound 1 µM"}, "[17]": {"settings": "second compound 0.0316 µM, first compound 3.16 µM"}, "[18]": {"settings": "second compound 0.0316 µM, first compound 10 µM"}, "[19]": {"settings": "second compound 0.1 µM, first compound 0.0316 µM"}, "[20]": {"settings": "second compound 0.1 µM, first compound 0.1 µM"}, "[21]": {"settings": "second compound 0.1 µM, first compound 0.316 µM"}, "[22]": {"settings": "second compound 0.1 µM, first compound 1 µM"}, "[23]": {"settings": "second compound 0.1 µM, first compound 3.16 µM"}, "[24]": {"settings": "second compound 0.1 µM, first compound 10 µM"}, "[25]": {"settings": "second compound 0.316 µM, first compound 0.0316 µM"}, "[26]": {"settings": "second compound 0.316 µM, first compound 0.1 µM"}, "[27]": {"settings": "second compound 0.316 µM, first compound 0.316 µM"}, "[28]": {"settings": "second compound 0.316 µM, first compound 1 µM"}, "[29]": {"settings": "second compound 0.316 µM, first compound 3.16 µM"}, "[30]": {"settings": "second compound 0.316 µM, first compound 10 µM"}, "[31]": {"settings": "second compound 1 µM, first compound 0.0316 µM"}, "[32]": {"settings": "second compound 1 µM, first compound 0.1 µM"}, "[33]": {"settings": "second compound 1 µM, first compound 0.316 µM"}, "[34]": {"settings": "second compound 1 µM, first compound 1 µM"}, "[35]": {"settings": "second compound 1 µM, first compound 3.16 µM"}, "[36]": {"settings": "second compound 1 µM, first compound 10 µM"}},
  "data": [
    {"smiles": "CC1(C)CCC(CN2CCN(c3ccc(C(=O)NS(=O)(=O)c4ccc(NCC5CCOCC5)c([N+](=O)[O-])c4)c(Oc4cnc5[nH]ccc5c4)c3)CC2)=C(c2ccc(Cl)cc2)C1", "note": "+ COc1c(OCCCN2CCOCC2)ccc2c3n(c(=NC(=O)c4cnc(N)nc4)nc12)CCN3", "values": [
      {"measurement": "IC50", "setting": "second compound 0.00316 µM", "result": 5.28, "unit": "µM"},
      {"measurement": "IC50", "setting": "second compound 0.01 µM", "result": 5.04, "unit": "µM"},
      {"measurement": "IC50", "setting": "second compound 0.0316 µM", "result": 4.6, "unit": "µM"},
      {"measurement": "IC50", "setting": "second compound 0.1 µM", "result": "< 0.0316", "unit": "µM"},
      {"measurement": "IC50", "setting": "second compound 0.316 µM", "result": "< 0.0316", "unit": "µM"},
      {"measurement": "IC50", "setting": "second compound 1 µM", "result": "< 0.0316", "unit": "µM"},
      {"measurement": "viability, T/C", "setting": "[1]", "result": 98.5, "unit": "%"},
      {"measurement": "viability, T/C", "setting": "[2]", "result": 80.8, "unit": "%"},
      {"measurement": "viability, T/C", "setting": "[3]", "result": 99.5, "unit": "%"},
      {"measurement": "viability, T/C", "setting": "[4]", "result": 87.2, "unit": "%"},
      {"measurement": "viability, T/C", "setting": "[5]", "result": 88.1, "unit": "%"},
      {"measurement": "viability, T/C", "setting": "[6]", "result": 2.53, "unit": "%"},
      {"measurement": "viability, T/C", "setting": "[7]", "result": 91, "unit": "%"},
      {"measurement": "viability, T/C", "setting": "[8]", "result": 77.5, "unit": "%"},
      {"measurement": "viability, T/C", "setting": "[9]", "result": 78.3, "unit": "%"},
      {"measurement": "viability, T/C", "setting": "[10]", "result": 76.4, "unit": "%"},
      {"measurement": "viability, T/C", "setting": "[11]", "result": 90.8, "unit": "%"},
      {"measurement": "viability, T/C", "setting": "[12]", "result": 1.94, "unit": "%"},
      {"measurement": "viability, T/C", "setting": "[13]", "result": 62.5, "unit": "%"},
      {"measurement": "viability, T/C", "setting": "[14]", "result": 65.3, "unit": "%"},
      {"measurement": "viability, T/C", "setting": "[15]", "result": 73.7, "unit": "%"},
      {"measurement": "viability, T/C", "setting": "[16]", "result": 78.2, "unit": "%"},
      {"measurement": "viability, T/C", "setting": "[17]", "result": 87.3, "unit": "%"},
      {"measurement": "viability, T/C", "setting": "[18]", "result": 1.43, "unit": "%"},
      {"measurement": "viability, T/C", "setting": "[19]", "result": 29.7, "unit": "%"},
      {"measurement": "viability, T/C", "setting": "[20]", "result": 30.3, "unit": "%"},
      {"measurement": "viability, T/C", "setting": "[21]", "result": 30.6, "unit": "%"},
      {"measurement": "viability, T/C", "setting": "[22]", "result": 33.5, "unit": "%"},
      {"measurement": "viability, T/C", "setting": "[23]", "result": 31.8, "unit": "%"},
      {"measurement": "viability, T/C", "setting": "[24]", "result": 1.14, "unit": "%"},
      {"measurement": "viability, T/C", "setting": "[25]", "result": 12.1, "unit": "%"},
      {"measurement": "viability, T/C", "setting": "[26]", "result": 9.95, "unit": "%"},
      {"measurement": "viability, T/C", "setting": "[27]", "result": 12.7, "unit": "%"},
      {"measurement": "viability, T/C", "setting": "[28]", "result": 9.33, "unit": "%"},
      {"measurement": "viability, T/C", "setting": "[29]", "result": 9.24, "unit": "%"},
      {"measurement": "viability, T/C", "setting": "[30]", "result": 0.68, "unit": "%"},
      {"measurement": "viability, T/C", "setting": "[31]", "result": 3.97, "unit": "%"},
      {"measurement": "viability, T/C", "setting": "[32]", "result": 5.15, "unit": "%"},
      {"measurement": "viability, T/C", "setting": "[33]", "result": 4.27, "unit": "%"},
      {"measurement": "viability, T/C", "setting": "[34]", "result": 5.32, "unit": "%"},
      {"measurement": "viability, T/C", "setting": "[35]", "result": 4.63, "unit": "%"},
      {"measurement": "viability, T/C", "setting": "[36]", "result": 1.04, "unit": "%"}
    ]},
    {"smiles": "CC(Cn1ccc(-c2ccc(C#N)c(Cl)c2)n1)NC(=O)c1cc(C(C)O)[nH]n1", "note": "(centres undefined) + COc1c(OCCCN2CCOCC2)ccc2c3n(c(=NC(=O)c4cnc(N)nc4)nc12)CCN3", "values": [
      {"measurement": "IC50", "setting": "second compound 0.00316 µM", "result": "> 10", "unit": "µM"},
      {"measurement": "IC50", "setting": "second compound 0.01 µM", "result": "> 10", "unit": "µM"},
      {"measurement": "IC50", "setting": "second compound 0.0316 µM", "result": "> 10", "unit": "µM"},
      {"measurement": "IC50", "setting": "second compound 0.1 µM", "result": "< 0.0316", "unit": "µM"},
      {"measurement": "IC50", "setting": "second compound 0.316 µM", "result": "< 0.0316", "unit": "µM"},
      {"measurement": "IC50", "setting": "second compound 1 µM", "result": "< 0.0316", "unit": "µM"},
      {"measurement": "viability, T/C", "setting": "[1]", "result": 110, "unit": "%"},
      {"measurement": "viability, T/C", "setting": "[2]", "result": 90.4, "unit": "%"},
      {"measurement": "viability, T/C", "setting": "[3]", "result": 99.9, "unit": "%"},
      {"measurement": "viability, T/C", "setting": "[4]", "result": 80.3, "unit": "%"},
      {"measurement": "viability, T/C", "setting": "[5]", "result": 108, "unit": "%"},
      {"measurement": "viability, T/C", "setting": "[6]", "result": 86.8, "unit": "%"},
      {"measurement": "viability, T/C", "setting": "[7]", "result": 91.4, "unit": "%"},
      {"measurement": "viability, T/C", "setting": "[8]", "result": 83.7, "unit": "%"},
      {"measurement": "viability, T/C", "setting": "[9]", "result": 87.4, "unit": "%"},
      {"measurement": "viability, T/C", "setting": "[10]", "result": 103, "unit": "%"},
      {"measurement": "viability, T/C", "setting": "[11]", "result": 86.6, "unit": "%"},
      {"measurement": "viability, T/C", "setting": "[12]", "result": 72.8, "unit": "%"},
      {"measurement": "viability, T/C", "setting": "[13]", "result": 60.4, "unit": "%"},
      {"measurement": "viability, T/C", "setting": "[14]", "result": 64.4, "unit": "%"},
      {"measurement": "viability, T/C", "setting": "[15]", "result": 59.8, "unit": "%"},
      {"measurement": "viability, T/C", "setting": "[16]", "result": 68.7, "unit": "%"},
      {"measurement": "viability, T/C", "setting": "[17]", "result": 75.3, "unit": "%"},
      {"measurement": "viability, T/C", "setting": "[18]", "result": 58.6, "unit": "%"},
      {"measurement": "viability, T/C", "setting": "[19]", "result": 26.6, "unit": "%"},
      {"measurement": "viability, T/C", "setting": "[20]", "result": 25.5, "unit": "%"},
      {"measurement": "viability, T/C", "setting": "[21]", "result": 27.3, "unit": "%"},
      {"measurement": "viability, T/C", "setting": "[22]", "result": 30.1, "unit": "%"},
      {"measurement": "viability, T/C", "setting": "[23]", "result": 27.9, "unit": "%"},
      {"measurement": "viability, T/C", "setting": "[24]", "result": 25.3, "unit": "%"},
      {"measurement": "viability, T/C", "setting": "[25]", "result": 7.87, "unit": "%"},
      {"measurement": "viability, T/C", "setting": "[26]", "result": 8.84, "unit": "%"},
      {"measurement": "viability, T/C", "setting": "[27]", "result": 7.77, "unit": "%"},
      {"measurement": "viability, T/C", "setting": "[28]", "result": 9.07, "unit": "%"},
      {"measurement": "viability, T/C", "setting": "[29]", "result": 10.8, "unit": "%"},
      {"measurement": "viability, T/C", "setting": "[30]", "result": 7.91, "unit": "%"},
      {"measurement": "viability, T/C", "setting": "[31]", "result": 5.17, "unit": "%"},
      {"measurement": "viability, T/C", "setting": "[32]", "result": 4.25, "unit": "%"},
      {"measurement": "viability, T/C", "setting": "[33]", "result": 3.21, "unit": "%"},
      {"measurement": "viability, T/C", "setting": "[34]", "result": 3.76, "unit": "%"},
      {"measurement": "viability, T/C", "setting": "[35]", "result": 4.49, "unit": "%"},
      {"measurement": "viability, T/C", "setting": "[36]", "result": 3.05, "unit": "%"}
    ]}
  ]
}
